Source: US8183238B2, “Bicyclic and tricyclic compounds as KAT II inhibitors” (priority 2009, dated 2012)
Counter-ions that a name gives are not always drawn.

What follows are compounds tested against human KAT II (hKAT II) enzyme (Homo sapiens, UniProt Q8N5Z0) (assay: KAT II Inhibition Spectra Assay). Conditions: Table 6; hKAT II, decrease in OD370, 37° C., 15-20 h; read-out: KATII IC50.
human KAT II (hKAT II) enzyme, sequence (Q8N5Z0 30-425): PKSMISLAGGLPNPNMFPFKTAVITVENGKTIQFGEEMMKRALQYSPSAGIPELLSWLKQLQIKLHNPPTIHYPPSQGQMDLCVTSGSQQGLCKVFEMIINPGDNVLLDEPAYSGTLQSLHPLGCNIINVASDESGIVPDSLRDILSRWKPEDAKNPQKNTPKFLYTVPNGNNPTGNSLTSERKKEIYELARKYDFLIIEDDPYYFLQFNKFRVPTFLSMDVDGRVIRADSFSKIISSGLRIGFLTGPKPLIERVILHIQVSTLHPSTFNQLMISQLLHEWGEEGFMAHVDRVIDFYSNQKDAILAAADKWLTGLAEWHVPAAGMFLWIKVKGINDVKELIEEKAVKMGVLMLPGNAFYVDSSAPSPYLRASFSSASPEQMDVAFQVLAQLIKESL
Format: biochemical
Method in brief: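 hKAT II (15 nM, 3× stock) converts L-kynurenine (3 mM, 3× stock) with α-ketoglutarate and PLP in Tris acetate; 15–20 h at 37 °C. Inhibition of the OD370 decrease read versus DMSO wells across a concentration range gives IC50.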
For `N[C@H]1Cc2cc(Oc3ccc(F)c(C(F)(F)F)c3)ccc2N(O)C1=O` [Example 159, (3S)-3-amino-6-[4-fluoro-3-(trifluoromethyl)phenoxy]-1-hydroxy-3,4-dihydroquinolin-2(1H)-one, trifluoroacetate salt], the IC50 was 109 nM. `N[C@H]1Cc2cc(Oc3cccc(C(F)(F)F)c3F)ccc2N(O)C1=O` [Example 160, (3S)-3-amino-6-[2-fluoro-3-(trifluoromethyl)phenoxy]-1-hydroxy-3,4-dihydroquinolin-2(1H)-one, trifluoroacetate salt] gave an IC50 of 101 nM. `N[C@H]1Cc2cc(Oc3ccc(F)cc3Cl)ccc2N(O)C1=O` [Example 161, (3S)-3-amino-6-(2-chloro-4-fluorophenoxy)-1-hydroxy-3,4-dihydroquinolin-2(1H)-one, trifluoroacetate salt] was tested, and the IC50 was 54 nM. With `N[C@H]1Cc2cc(Oc3ccc(F)c(F)c3)ccc2N(O)C1=O` [Example 162, (3S)-3-amino-6-(3,4-difluorophenoxy)-1-hydroxy-3,4-dihydroquinolin-2(1H)-one, trifluoroacetate salt] the IC50 was 46.7 nM. Work on `N[C@H]1Cc2cc(Oc3ccc(Cl)c(Cl)c3)ccc2N(O)C1=O` [Example 163, (3S)-3-amino-6-(3,4-dichlorophenoxy)-1-hydroxy-3,4-dihydroquinolin-2(1H)-one, trifluoroacetate salt] yielded an IC50 of 60 nM. Work on `N#Cc1ccc(Oc2ccc3c(c2)C[C@H](N)C(=O)N3O)cc1C(F)(F)F` [Example 164, 4-{[(3S)-3-amino-1-hydroxy-2-oxo-1,2,3,4-tetrahydroquinolin-6-yl]oxy}-2-(trifluoromethyl)benzonitrile, trifluoroacetate salt] yielded an IC50 of 42.2 nM. With `Cc1ccc(F)cc1Oc1ccc2c(c1)C[C@H](N)C(=O)N2O` [Example 165, (3S)-3-amino-6-(5-fluoro-2-methylphenoxy)-1-hydroxy-3,4-dihydroquinolin-2(1H)-one, trifluoroacetate salt] the IC50 was 96.6 nM. In the case of `N[C@H]1Cc2cc(Oc3cc(F)cc(C(F)(F)F)c3)ccc2N(O)C1=O` [Example 166, (3S)-3-amino-6-[3-fluoro-5-(trifluoromethyl)phenoxy]-1-hydroxy-3,4-dihydroquinolin-2(1H)-one, trifluoroacetate salt], the IC50 is reported as 128 nM. For `N[C@H]1Cc2cc(Oc3ccc(Cl)c(F)c3)ccc2N(O)C1=O` [Example 167, (3S)-3-amino-6-(4-chloro-3-fluorophenoxy)-1-hydroxy-3,4-dihydroquinolin-2(1H)-one, trifluoroacetate salt], the IC50 was 105 nM. Work on `N[C@H]1Cc2cc(Oc3cc(F)cc(Cl)c3)ccc2N(O)C1=O` [Example 168, (3S)-3-amino-6-(3-chloro-5-fluorophenoxy)-1-hydroxy-3,4-dihydroquinolin-2(1H)-one, trifluoroacetate salt] yielded an IC50 of 54.3 nM. `N[C@H]1Cc2cc(Oc3cccc(OC(F)(F)F)c3)ccc2N(O)C1=O` [Example 169, (3S)-3-amino-1-hydroxy-6-[3-(trifluoromethoxy)phenoxy]-3,4-dihydroquinolin-2(1H)-one, trifluoroacetate salt] showed an IC50 of 123 nM. Compound `N[C@H]1Cc2cc(Oc3cncc(Cl)c3)ccc2N(O)C1=O` [Example 170, (3S)-3-amino-6-[(5-chloropyridin-3-yl)oxy]-1-hydroxy-3,4-dihydroquinolin-2(1H)-one, ammonium salt] has an IC50 of 28.9 nM. In the case of `COc1ccc(Oc2ccc3c(c2)CC(N)C(=O)N3O)cn1` (stereo not shown) [Example 171, 3-amino-1-hydroxy-6-[(6-methoxypyridin-3-yl)oxy]-3,4-dihydroquinolin-2(1H)-one, ammonium salt], the IC50 is reported as 42.8 nM.
